Experimental data reported in US8357504B2, “Method and kit for the microbiological determination of vitamins in substance mixtures” (IFP Privates Institut fur Produktqualitat GmbH, priority 2004, dated 2013).
Where “and” joins values, the source holds several entries; their conditions need not be identical. Equal entries are not always repeated.

What was measured:
[1] = tested on: Lactobacillus plantarum ATCC 8014; assay: Microbiological biotin determination (growth turbidity, biotin assay medium); format: cell-based; settings: for Average value (measurement at 630 nm): number 3; for Measurement at 630 nm: single well
Description: The preparation of the microtitration plate and determination of biotin was effected as in Example 1 with Lactobacillus plantarum ATCC 8014. There served as assay medium Difco™ biotin assay medium, containing casamino acids 12.0 g/L, dextrose 40.0 g/L, sodium acetate 20.0 g/L, L-cystein 0.2 g/L, DL-tryptophane 0.2 g/L, adenine sulfate 20.0 mg/L, guanine hydrochloride 20.0 mg/L, uracil 20.0 mg/L, thiamine hydrochloride 2.0 mg/L, riboflavin 2.0 mg/L, niacin 2.0 mg/L, calcium pantothenate 2.0 mg/L, pyridoxine hydrochloride 4.0 mg/L, p-aminobenzoic acid 0.2 mg/L, magnesium sulfate (water-free) 0.4 mg/L, sodium chloride 20.0 mg/L, iron sulfate 20.0 mg/L, manganese sulfate 20.0 mg/L, potassium dihydrogen phosphate 1.0 g/L, dipotassium hydrogen phosphate 1.0 g/L. The storage medium further contain 200 mM trehalose. The determined standard curve is show in FIG. 4.

[2] = tested on: Lactobacillus delbrueckii subsp. Lactis (L. leichmanii) ATCC 7830; assay: Microbiological vitamin B12 determination (growth turbidity, B12 assay medium); format: cell-based; settings: for Average value (measurement at 630 nm): number 3; for Measurement at 630 nm: single well
Text: The preparation of the microtitration plate and the determination of vitamin B12 (cyanocobalamine, hydroxycobalamine) was effected as in Example 1, except only that Lactobacillus delbrueckii subsp. Lactis (L. leichmanii) ATCC 7830 was employed as test organism. As assay medium there served Difco™ B12 assay medium, containing casamino acids 15.0 g/L, dextrose 40.0 g/L, asparagine 0.2 g/L, sodium acetate 20.0 g/L, Ascorbic acid 4.0 g/L, L-cystein 4.0 g/L, DL-tryptophane 0.4 g/L, adenine sulfate 20.0 mg/L, guanine hydrochloride 20.0 mg/L, uracil 20.0 mg/L, xanthin 20.0 mg/L, polysorbate-80 2.0 g/L, magnesium sulfate (water-free) 0.4 mg/L, sodium chloride 20.0 mg/L, iron sulfate 20.0 mg/L, manganese sulfate 20.0 mg/L, riboflavin 1.0 mg/L, p-aminobenzoic acid 2.0 mg/L, pyridoxine hydrochloride 4.0 mg/L, thiamine hydrochloride 1.0 mg/L, calcium pantothenate 1.0 mg/L, niacin 2.0 mg/L, biotin 10.0 ug/L, pyridoxine hydrochloride 4.0 mg/L, pyridoxal hydrochloride 4.0 mg/L, pyridoxamine hydrochloride 800.0 ug/L, […], potassium dihydrogen phosphate 1.0 g/L, dipotassium hydrogen phosphate 1.0 g/L. The storage medium further contained 200 mM trehalose.

[3] = tested on: Saccharomyces cerevisae ATCC 9080; assay: Microbiological B6 pyridoxine determination (growth turbidity, pyridoxine-Y-medium); format: cell-based; settings: for Average value (measurement at 630 nm): number 3; for Measurement at 630 nm: single well
Description: The preparation of the microtitration plate and the determination of B6-pyridoxine was effected as in Example 1, except only that as test organism Saccharomyces cerevisae ATCC 9080 was employed. As assay medium there was employed Difco™ pyridoxine-Y-medium, containing dextrose 40.0 g/L, L-asparagine 4.0 g/L, ammonium sulfate 4.0 g/L potassium dihydrogen phosphate 3.0 g/L, magnesium sulfate 1.0 g/L, calcium chloride 0.49 g/L, DL-methionine 40.0 mg/L, DL-tryptophane 40.0 mg/L, DL-isoleucin 40.0 mg/L, DL-valin 40.0 mg/L, L-histidine hydrochloride 20.0 mg/L, riboflavin 20.0 mg/L, biotin 8.0 mg/L, inositol 5.0 mg/L, iron sulfate 500 μg/L, thiamine hydrochloride 400.0 μg/L, calcium pantothenate 400.0 μg/L, nicotinic acid 400.0 μg/L, boric acid 200.0 μg/L, potassium iodide 200.0 μg/L, ammonium molybdate 40.0 μg/L, manganese sulfate 80.0 μg/L, copper sulfate 90.0 μg/L, zinc sulfate 80.0 μg/L. The storage medium further contained 200 mM trehalose.

[4] = tested on: Lactobacillus rhamnosus ATCC 7469; assay: Microbiological riboflavin determination (growth turbidity, riboflavin assay medium); format: cell-based; settings: for Average value (measurement at 630 nm): number 3; for Measurement at 630 nm: single well
Text: The preparation of the microtitration plate and the determination of riboflavin was effected as in Example 1, except only that Lactobacillus rhamnosus ATCC 7469 was employed as test organism. As assay medium there was employed Difco™ riboflavin assay medium, containing cas amino acids 10.0 g/L, dextrose 20.0 g/L, sodium acetate 15.0 g/L, dipotassium hydrogen phosphate 1.0 g/L, potassium dihydrogen phosphate 1.0 g/L, L-asparagine 0.6 g/L, L-cystine 0.2 g/L, DL-tryptophane 0.2 g/L, magnesium sulfate 0.4 g/L, adenine sulfate 20.0 mg/L, guanine hydrochloride 20.0 mg/L, uracil 20.0 mg/L, xanthin 20 mg/L, iron sulfate 20.0 mg/L, manganese sulfate 20.0 mg/L, sodium chloride 20.0 mg/L, pyridoxine hydrochloride 4.0 mg/L, pyridoxal hydrochloride 4.0 mg/L, p-aminobenzoic acid 2.0 mg/L, calcium pantothenate 800 μg/L, folic acid 800 μg/L, nicotinic acid 800 μg/L, thiamine hydrochloride 400 μg/L, biotin 1.0 μg/L. The storage medium additionally contained 200 mM trehalose.

[5] = tested on: Lactobacillus plantarum (ATCC 8014); settings: cited from earlier work
[6] = tested on: Lactobacillus rhamnosus ATCC 7469; assay: Microbiological folic acid determination (growth turbidity, folic acid-casein medium); format: cell-based; settings: for Average value (measurement at 630 nm): number 3; for Measurement at 630 nm: single well
Text: The preparation of the microtitration plate and the determination of folic acid (pteroylglutaminic acid and other folic acid conjugates) was effected as in Example 1, except only that Lactobacillus rhamnosus ATCC 7469 was employed as test organism. There was employed as assay medium Difco™ folic acid-casein medium, containing activated carbon treated pancreas digested casein 10.0 g/L, dextrose 40.0 g/L, sodium acetate 40.0 g/L, potassium dihydrogen phosphate 1.0 g/L, dipotassium hydrogen phosphate 1.0 g/L, DL-tryptophane 0.2 g/L, L-asparagine 0.6 g/L, L-cystein hydrochloride 0.5 g/L, adenine sulfate 10.0 mg/L, guanine hydrochloride 10.0 mg/L, uracil 10.0 mg/L, xanthin 20.0 mg/L, Polysorbate-80 0.1 g/L, glutathion (reduced) 5.0 mg/L, magnesium sulfate 0.2 g/L, sodium chloride 20.0 mg/L, iron sulfate 20.0 mg/L, manganese sulfate 15.0 mg/L, riboflavin 1.0 mg/L, p-aminobenzoic acid 2.0 mg/L, pyridoxine hydrochloride 4.0 mg/L, thiamine hydrochloride 400.0 μg/L, calcium pantothenate 800.0 μg/L, nicotinic acid 800.0 μg/L, biotin 20.0 μg/L, 0.05% ascorbic acid. The storage medium contained 200 mM trehalose. The folic acid standard was dissolved in 100 mMol potassium phosphate buffer, pH 6.1, 0.1% ascorbic acid.

[7] = tested on: Lactobacillus planatarum ATTC 8014; assay: Microbiological calcium pantothenate determination (growth turbidity); format: cell-based; settings: for Average value (measurement at 630 nm): number 3; for Measurement at 630 nm: single well
Description: [table] The preparation of the microtitration plate and the determination of […] 800 μg/L, p-aminobenzoic acid 200.0 μg/L, biotin 1.0 μg/L, potassium dihydrogen phosphate 1.0 g/L, dipotassium hydrogen phosphate 1.0 g/L, magnesium sulfate 0.4 g/L, sodium chloride 20.0 mg/L, iron sulfate 20.0 mg/L, manganese sulfate 20.0 mg/L. The storage medium further contained 200 mM trehalose.

[8] = vitamin B12 standard 0.1 μg/100 g
[9] = vitamin B12 standard 0.2 μg/100 g
[10] = vitamin B12 standard 0.3 μg/100 g
[11] = vitamin B12 standard 0.4 μg/100 g
[12] = vitamin B12 standard 0.8 μg/100 g
[13] = B6-pyridoxine standard 0.004 mg/100 g
[14] = B6-pyridoxine standard 0.008 mg/100 g
[15] = B6-pyridoxine standard 0.012 mg/100 g
[16] = B6-pyridoxine standard 0.016 mg/100 g
[17] = B6-pyridoxine standard 0.024 mg/100 g
[18] = riboflavin standard 0.1 mg/100 g
[19] = riboflavin standard 0.2 mg/100 g
[20] = riboflavin standard 0.3 mg/100 g
[21] = riboflavin standard 0.4 mg/100 g
[22] = riboflavin standard 0.5 mg/100 g
[23] = folic acid standard 3.75 pg/150 μl (0.25 μg/100 g)
[24] = folic acid standard 7.5 pg/150 μl (0.5 μg/100 g)
[25] = folic acid standard 15 pg/150 μl (1 μg/100 g)
[26] = folic acid standard 22.5 pg/150 μl (1.5 μg/100 g)
[27] = folic acid standard 30 pg/150 μl (2 μg/100 g)
[28] = Ca pantothenate standard 0.08 mg/100 g
[29] = Ca pantothenate standard 0.16 mg/100 g
[30] = Ca pantothenate standard 0.32 mg/100 g
[31] = Ca pantothenate standard 0.48 mg/100 g
[32] = Ca pantothenate standard 0.64 mg/100 g

O=C(O)CCCC[C@@H]1SC[C@@H]2NC(=O)N[C@@H]21 [Biotin, biotin]
Average value (measurement at 630 nm) ([1]; biotin standard 0.003 μg/100 g): 0.204 | Measurement at 630 nm ([1]; biotin standard 0.003 μg/100 g): 0.205 and 0.204 and 0.203 | Average value (measurement at 630 nm) ([1]; biotin standard 0.009 μg/100 g): 0.499 | Measurement at 630 nm ([1]; biotin standard 0.009 μg/100 g): 0.506 and 0.5 and 0.491 | Average value (measurement at 630 nm) ([1]; biotin standard 0.015 μg/100 g): 0.685 | Measurement at 630 nm ([1]; biotin standard 0.015 μg/100 g): 0.676 and 0.693 and 0.686 | Average value (measurement at 630 nm) ([1]; biotin standard 0.021 μg/100 g): 0.823 | Measurement at 630 nm ([1]; biotin standard 0.021 μg/100 g): 0.826 and 0.822 and 0.82 | Average value (measurement at 630 nm) ([1]; biotin standard 0.027 μg/100 g): 0.985 | Measurement at 630 nm ([1]; biotin standard 0.027 μg/100 g): 0.986 and 0.988 and 0.982

cyanocobalamine [Vitamin B12]
Average value (measurement at 630 nm) [2, 8]: 0.268 | Measurement at 630 nm [2, 8]: 0.264 and 0.271 and 0.269 | Average value (measurement at 630 nm) [2, 9]: 0.515 | Measurement at 630 nm [2, 9]: 0.51 and 0.503 and 0.531 | Average value (measurement at 630 nm) [2, 10]: 0.728 | Measurement at 630 nm [2, 10]: 0.727 and 0.721 and 0.736 | Average value (measurement at 630 nm) [2, 11]: 0.869 | Measurement at 630 nm [2, 11]: 0.88 and 0.863 and 0.865 | Average value (measurement at 630 nm) [2, 12]: 1.069 | Measurement at 630 nm [2, 12]: 1.086 and 1.073 and 1.048

Cc1ncc(CO)c(CO)c1O [B6-pyridoxine, pyridoxine]
Average value (measurement at 630 nm) [3, 13]: 0.299 | Measurement at 630 nm [3, 13]: 0.298 and 0.297 and 0.301 | Average value (measurement at 630 nm) [3, 14]: 0.4 | Measurement at 630 nm [3, 14]: 0.407 and 0.398 and 0.394 | Average value (measurement at 630 nm) [3, 15]: 0.538 | Measurement at 630 nm [3, 15]: 0.522 and 0.541 and 0.552 | Average value (measurement at 630 nm) [3, 16]: 0.753 | Measurement at 630 nm [3, 16]: 0.73 and 0.766 and 0.762 | Average value (measurement at 630 nm) [3, 17]: 1.069 | Measurement at 630 nm [3, 17]: 1.049 and 1.088 and 1.07

Cc1cc2nc3c(=O)[nH]c(=O)nc-3n(C[C@H](O)[C@H](O)[C@H](O)CO)c2cc1C [B2 Riboflavin, riboflavin]
Average value (measurement at 630 nm) [4, 18]: 0.204 | Measurement at 630 nm [4, 18]: 0.196 and 0.209 and 0.206 | Average value (measurement at 630 nm) [4, 19]: 0.398 | Measurement at 630 nm [4, 19]: 0.404 and 0.408 and 0.383 | Average value (measurement at 630 nm) [4, 20]: 0.623 | Measurement at 630 nm [4, 20]: 0.624 and 0.616 and 0.628 | Average value (measurement at 630 nm) [4, 21]: 0.759 | Measurement at 630 nm [4, 21]: 0.752 and 0.755 and 0.771 | Average value (measurement at 630 nm) [4, 22]: 0.88 | Measurement at 630 nm [4, 22]: 0.855 and 0.886 and 0.9

Niacytine
Consumption by the test organism [5]: not consumed

Nc1nc2ncc(CNc3ccc(C(=O)N[C@@H](CCC(=O)O)C(=O)O)cc3)nc2c(=O)[nH]1 [Folic acid, folic acid]
Average value (measurement at 630 nm) [6, 23]: 0.264 | Measurement at 630 nm [6, 23]: 0.269 and 0.261 | Average value (measurement at 630 nm) [6, 24]: 0.545 | Measurement at 630 nm [6, 24]: 0.556 and 0.536 and 0.544 | Average value (measurement at 630 nm) [6, 25]: 0.793 | Measurement at 630 nm [6, 25]: 0.784 and 0.788 and 0.807 | Average value (measurement at 630 nm) [6, 26]: 0.999 | Measurement at 630 nm [6, 26]: 0.986 and 1.002 and 1.01 | Average value (measurement at 630 nm) [6, 27]: 1.094 | Measurement at 630 nm [6, 27]: 1.121 and 1.074 and 1.087

calcium pantothenate [Ca pantothenate]
Average value (measurement at 630 nm) [7, 28]: 0.076 | Measurement at 630 nm [7, 28]: 0.075 and 0.08 and 0.073 | Average value (measurement at 630 nm) [7, 29]: 0.179 | Measurement at 630 nm [7, 29]: 0.179 and 0.178 and 0.181 | Average value (measurement at 630 nm) [7, 30]: 0.395 | Measurement at 630 nm [7, 30]: 0.389 and 0.404 and 0.392 | Average value (measurement at 630 nm) [7, 31]: 0.491 | Measurement at 630 nm [7, 31]: 0.49 and 0.493 and 0.491 | Average value (measurement at 630 nm) [7, 32]: 0.59 | Measurement at 630 nm [7, 32]: 0.589 and 0.594 and 0.588
